Key:
ring tissue model = experiment: Contractile force developed by ring sample during tissue development (matrix remodeling and compression); type: cell-based; conditions: Cytochalasin D 2 μM
Experimental: The contractile force developed by the ring sample during matrix remodeling and compression can be measured by connecting the ring to the force measuring apparatus as described above within about 1-2 hours after collagen gelation. The cells begin to exert a force on the matrix after this time. Then the increase of force during tissue development (remodeling and compression) is observed over time.
Maximum force is typically reached within 15 to 20 hours. This process was also disrupted by several inhibitors as illustrated in FIGS. 18(b)-(d).

[1] = tested on: bio-artificial tissues (F-actin network); experiment: Tissue indentation device: force-time and longitudinal force-strain curves (Example 15); type: cell-based
Experimental: Bio-artificial tissues were generated by mixing cells and neutralized collagen, as described elsewhere (Wakatsuki et al., 2000, Biophys. J. 79:2353-2368). Briefly, cells were mixed with neutralized rat-tail collagen (Millipore Billerica, Mass.) and media containing 10% Fetal Bovine Serum (FBS). 200-250[…]1 of this solution is poured into wells as described below. The tissues are cultured in Dulbecco's modified Eagle's medium (DMEM) supplemented with 10% FBS and antibiotics (penicillin and streptomycin) in an incubator for two or three days. The bio-artificial tissue membrane was stretched using a mechanical testing device is (as detailed below). During the mechanical measurements, culture medium was switched to a HEPES-buffered DMEM, pH 7.4, and maintained at 37° C.
A chamber to hold 8 bio-artificial tissues was machined from a polycarbonate bar (25×60×10 mm) using a tabletop CNC mill (Sherline Products Inc., Vista, Calif.). The 8 square wells of 8×8 mm contained 2 horizontal stainless-steel (medical grade) bars (1 mm diameter) which centers were located 2 mm above bottom and 2 mm beside each wall and were 4 mm apart (FIG. 29A). A microscope cover-slip (No. 1 thickness, Fisher brand) sealed the bottom of wells using silicon glue (Dow chemicals) to facilitate microscopic imaging of cells and bio-artificial tissues. […]
The mechanical testing device is depicted in FIG. 29A. […] The linear actuators were controlled simultaneously by a personal computer that also recorded the signal generated by the force transducer. […]
While the force-probe indents the bio-artificial tissues vertically at a constant rate, ν (0.5 mm/sec), an isometric force transducer connected to the force probe recorded a resistance force, F(t). A time dependent change in bio-artificial tissues-membrane force in the longitudinal direction, T(t), was calculated from F(t) by a trigonometric relationship (FIG. 28). This rate of indentation was determined to achieve a minimum noise-level by the current device arrangement. […]

## C=C1[C@@H](C)[C@H]2[C@H](Cc3ccccc3)NC(=O)[C@]23[C@H](OC(C)=O)/C=C/[C@@](C)(O)C(=O)[C@@H](C)C/C=C/[C@H]3[C@@H]1O [CD, cytochalasin D]
Ring tissue model
  development of force during ring tissue development: completely abolished
[1]; 90 nM CD
  pre-force σ0A (minimum force) compared to untreated control: reduced levels
[1]; 90 nM and 2 μM CD
  resistance force F(t) while stretching the membrane: less resistance force
[1]; 2 μM CD
  pre-force σ0A (minimum force) compared to untreated control: reduced levels

Reference: US8227240B2, “Systems for screening pharmaceutical chemicals” (The Washington University, priority 2001, dated 2012)
